Measured values as given in the supplement of paper PMC10307832.

Legend:
Experiment in all cases: relative viability (nuclei count vs DMSO), 5 days (fraction); higher = more cells survive
[1] = test system: COR-L 105
Method in brief: (§1)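 Cells from lung cancer lines were seeded into 1536-well plates and, one day later, dosed by pin tool. Treatments were either a single drug or a fixed dose of an anchor drug with five library-drug doses (not always all listed) in √10 steps. After 5 days, nuclei were stained in a one-step fixation (final 0.05% Triton X-100, 1% formaldehyde, 1 ug/ml Hoechst) and counted on 4× images, and relative viability is the treated-to-vehicle nuclei ratio, as the median of duplicate plates.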

[2] = test system: HCC-78
Method in brief: as §1

[3] = test system: UMC-11
Method in brief: as §1

[4] = test system: NCI-H2405
Method in brief: as §1

[5] = test system: HCC-366
Method in brief: as §1

[6] = test system: NCI-H1975
Method in brief: as §1

[7] = test system: NCI-H1395
Method in brief: as §1

[8] = test system: NCI-H1437
Method in brief: as §1

[9] = test system: LCLC-103H
Method in brief: as §1

[10] = test system: NCI-H358
Method in brief: as §1

[11] = test system: EPLC-272H
Method in brief: as §1

[12] = test system: NCI-H727
Method in brief: as §1

[13] = test system: HCC-827
Method in brief: as §1

[14] = test system: HCC-15
Method in brief: as §1

[15] = test system: NCI-H2085
Method in brief: as §1

[16] = test system: NCI-H1792
Method in brief: as §1

[17] = test system: NCI-H661
Method in brief: as §1

[18] = test system: NCI-H2023
Method in brief: as §1

[19] = test system: NCI-H1944
Method in brief: as §1

[20] = test system: HCC-44
Method in brief: as §1

[21] = test system: SK-LU-1
Method in brief: as §1

[22] = test system: COR-L23
Method in brief: as §1

[23] = test system: HARA
Method in brief: as §1

SMILES: O=c1[nH]c2ccccc2n1C1CCN(CCCC(c2ccc(F)cc2)c2ccc(F)cc2)CC1 [Pimozide] + CS(=O)(=O)N1CCN(Cc2cc3nc(-c4cccc5[nH]ncc45)nc(N4CCOCC4)c3s2)CC1 [Pictilisib] (partner 1 µM)
- relative viability ([1]; first compound 0.253 µM): 0.507
- relative viability ([1]; first compound 0.8 µM): 0.449
- relative viability ([1]; first compound 2.53 µM): 0.338
- relative viability ([1]; first compound 8 µM): 0.353
- relative viability ([2]; first compound 0.08 µM): 0.214
- relative viability ([2]; first compound 0.253 µM): 0.244
- relative viability ([2]; first compound 0.8 µM): 0.187
- relative viability ([2]; first compound 2.53 µM): 0.19
- relative viability ([2]; first compound 8 µM): 0.202
- relative viability ([3]; first compound 0.08 µM): 0.79
- relative viability ([3]; first compound 0.253 µM): 0.804
- relative viability ([3]; first compound 0.8 µM): 0.746
- relative viability ([3]; first compound 2.53 µM): 0.699
- relative viability ([3]; first compound 8 µM): 0.906
- relative viability ([4]; first compound 0.08 µM): 0.482
- relative viability ([4]; first compound 0.253 µM): 0.371
- relative viability ([4]; first compound 0.8 µM): 0.422
- relative viability ([4]; first compound 2.53 µM): 0.42
- relative viability ([4]; first compound 8 µM): 0.349
- relative viability ([5]; first compound 0.08 µM): 0.164
- relative viability ([5]; first compound 0.253 µM): 0.154
- relative viability ([5]; first compound 0.8 µM): 0.165
- relative viability ([5]; first compound 2.53 µM): 0.0834
- relative viability ([5]; first compound 8 µM): 0.118
- relative viability ([6]; first compound 0.08 µM): 0.282
- relative viability ([6]; first compound 0.253 µM): 0.262
- relative viability ([6]; first compound 0.8 µM): 0.297
- relative viability ([6]; first compound 2.53 µM): 0.28
- relative viability ([6]; first compound 8 µM): 0.202
- relative viability ([7]; first compound 0.08 µM): 0.647
- relative viability ([7]; first compound 0.253 µM): 0.598
- relative viability ([7]; first compound 0.8 µM): 0.634
- relative viability ([7]; first compound 2.53 µM): 0.679
- relative viability ([7]; first compound 8 µM): 0.681
- relative viability ([8]; first compound 0.08 µM): 0.543
- relative viability ([8]; first compound 0.253 µM): 0.464
- relative viability ([8]; first compound 0.8 µM): 0.499
- relative viability ([8]; first compound 2.53 µM): 0.421
- relative viability ([8]; first compound 8 µM): 0.406
- relative viability ([9]; first compound 0.08 µM): 0.593
- relative viability ([9]; first compound 0.253 µM): 0.513
- relative viability ([9]; first compound 0.8 µM): 0.466
- relative viability ([9]; first compound 2.53 µM): 0.574
- relative viability ([9]; first compound 8 µM): 0.528
- relative viability ([10]; first compound 0.08 µM): 0.292
- relative viability ([10]; first compound 0.253 µM): 0.324
- relative viability ([10]; first compound 0.8 µM): 0.384
- relative viability ([10]; first compound 2.53 µM): 0.356
- relative viability ([10]; first compound 8 µM): 0.396
- relative viability ([11]; first compound 0.08 µM): 0.302
- relative viability ([11]; first compound 0.253 µM): 0.269
- relative viability ([11]; first compound 0.8 µM): 0.273
- relative viability ([11]; first compound 2.53 µM): 0.258
- relative viability ([11]; first compound 8 µM): 0.238
- relative viability ([12]; first compound 0.08 µM): 0.367
- relative viability ([12]; first compound 0.253 µM): 0.357
- relative viability ([12]; first compound 0.8 µM): 0.389
- relative viability ([12]; first compound 2.53 µM): 0.308
- relative viability ([12]; first compound 8 µM): 0.434
- relative viability ([13]; first compound 0.253 µM): 1.02
- relative viability ([13]; first compound 0.8 µM): 0.986
- relative viability ([13]; first compound 2.53 µM): 1.04
- relative viability ([13]; first compound 8 µM): 1.06
- relative viability ([14]; first compound 0.08 µM): 0.809
- relative viability ([14]; first compound 0.253 µM): 0.767
- relative viability ([14]; first compound 0.8 µM): 0.616
- relative viability ([14]; first compound 2.53 µM): 0.709
- relative viability ([14]; first compound 8 µM): 0.749
- relative viability ([15]; first compound 0.08 µM): 0.446
- relative viability ([15]; first compound 0.253 µM): 0.532
- relative viability ([15]; first compound 0.8 µM): 0.525
- relative viability ([15]; first compound 2.53 µM): 0.486
- relative viability ([15]; first compound 8 µM): 0.415
- relative viability ([16]; first compound 0.08 µM): 0.274
- relative viability ([16]; first compound 0.253 µM): 0.292
- relative viability ([16]; first compound 0.8 µM): 0.25
- relative viability ([16]; first compound 2.53 µM): 0.26
- relative viability ([16]; first compound 8 µM): 0.314
- relative viability ([17]; first compound 0.08 µM): 0.447
- relative viability ([17]; first compound 0.253 µM): 0.337
- relative viability ([17]; first compound 0.8 µM): 0.454
- relative viability ([17]; first compound 2.53 µM): 0.381
- relative viability ([17]; first compound 8 µM): 0.408
- relative viability ([18]; first compound 0.08 µM): 0.214
- relative viability ([18]; first compound 0.253 µM): 0.24
- relative viability ([18]; first compound 0.8 µM): 0.212
- relative viability ([18]; first compound 2.53 µM): 0.223
- relative viability ([18]; first compound 8 µM): 0.202
- relative viability ([19]; first compound 0.08 µM): 0.331
- relative viability ([19]; first compound 0.253 µM): 0.337
- relative viability ([19]; first compound 0.8 µM): 0.325
- relative viability ([19]; first compound 2.53 µM): 0.35
- relative viability ([19]; first compound 8 µM): 0.33
- relative viability ([20]; first compound 0.08 µM): 0.58
- relative viability ([20]; first compound 0.253 µM): 0.695
- relative viability ([20]; first compound 0.8 µM): 0.565
- relative viability ([20]; first compound 2.53 µM): 0.576
- relative viability ([20]; first compound 8 µM): 0.558
- relative viability ([21]; first compound 0.08 µM): 0.643
- relative viability ([21]; first compound 0.253 µM): 0.566
- relative viability ([21]; first compound 0.8 µM): 0.551
- relative viability ([21]; first compound 2.53 µM): 0.436
- relative viability ([21]; first compound 8 µM): 0.469
- relative viability ([22]; first compound 0.08 µM): 0.705
- relative viability ([22]; first compound 0.253 µM): 0.75
- relative viability ([22]; first compound 0.8 µM): 0.638
- relative viability ([22]; first compound 2.53 µM): 0.702
- relative viability ([22]; first compound 8 µM): 0.632
- relative viability ([23]; first compound 0.08 µM): 0.252
- relative viability ([23]; first compound 0.253 µM): 0.423
- relative viability ([23]; first compound 0.8 µM): 0.595
- relative viability ([23]; first compound 2.53 µM): 0.351
- relative viability ([23]; first compound 8 µM): 0.368
